Results on four compounds are retold here after patent US4786651A, “Treatment of cutaneous hyperproliferative dermatoses with manoalide” (Allergan, Inc., priority 1986, dated 1988).

One test has as its system ODC. To be noted: tape-stripped mouse epidermis; M. Connor and N. Lowe 1983; cited from earlier work.
Another test relates to humans. To be noted: cited from earlier work.
Test [1] deals with ornithine decarboxylase (ODC). Briefly: Tape-stripped epidermal ODC activity in female hairless mice (In Vivo Assay). Details: species or system mouse (female hairless mice). The source says: (§1) Tape-stripping mouse epidermis is quick and convenient method of inducing ODC activity that avoids the necessity of handling carcinogens. M. Connor and N. Lowe (J. Invest. Dermatol 43, 5174, 1983) have studied the ability of retinoids to inhibit ODC. […] In vitro methods have also been useful in determining the anti-hyperproliferative activity of drugs. C. Marcelo and J. Tomich (J. Invest. Dermatol. 81, 64s, 1983) have shown that neonatal mouse keratinocyte cultures can be used to identify drugs that inhibit DNA synthesis. More recently, R. Weiss, Eichner, R. and Sunn, T. T, J. Cell Biol., 98: 1397-1406, (1984) have shown that epidermal cultures are in fact, a model of epidermal hyperproliferation and therefore a good model for testing drugs that inhibit hyperporliferation.
Female hairless mice were tape-stripped and ODC activity determined according to the method of M. Connor and N. Lowe (J. Invest. Dermatol. 43, 5174, 1983).
**50 mg/kg; IP, 30 min before tapestripping

A further test deals with keratinocytes. Put plainly: Inhibition of DNA synthesis in neonatal mouse keratinocyte cultures (3H-thymidine; In Vitro Assay). To be noted: daily drug for three days; FIG. 2. Type of test: cell-based, mouse (neonatal balb/c).
Excerpt: as §1
Keratinocytes from 1-2 day old neonatal balb/c mice were used. Cells were plated in 35 mm culture dishes in M199 medium containing 10% FCS and incubated at 37° C. in 5% CO2. Cells were allowed to reach confluency at which time 0.01, 0.1, 1.0, 10 and 20 μM manoalide was added in DMSO. Fresh media and drug were added each day to culture for three days. On the fourth day cells were pulsed with ^3 H-thymidine (1 µCi/ml) to determine how much manoalide inhibited DNA syntheses (CPM/μg DNA).

Turning to `CC1=C(/C=C/C(C)=C/C=C/C(C)=C\C(=O)O)C(C)(C)CCC1` [13-cis retinoic acid], the “inhibition of ODC” value in the test with ODC is “active at inhibiting ODC”. In the test on humans, the “therapeutic activity in humans” value was “therapeutically active in humans”.

For the compound `CC1=C(CC/C(C)=C/CCC2=CCC(C3=CC(=O)OC3O)OC2O)C(C)(C)CCC1` (stereo not shown) [Manoalide], the “% Inhibition (ODC)” value in test [1] (50 mg/kg, IP, 30 min before tapestripping, p < .05) came to 54%. In addition, in test [1] (50 mg/kg, IP, 30 min before tapestripping, vehicle (soybean oil) 6.1 ± 1.2), the ODC was 2.8 ± 0.6 nmoles ^14 CO2 (mg protein/mg protein/hr). Besides, in test [1] (systemic administration), the “inhibition of tape-stripped ODC after systemic administration” value is “can also inhibit tape-stripped ODC”. Moreover, the “inhibition of keratinocyte DNA synthesis” value in the test with keratinocytes was “inhibit keratinocyte DNA synthesis in a dose related fashion”.

For `CC1=C(/C=C/C(C)=C/C=C/C(C)=C/C(=O)O)C(C)(C)CCC1` [Trans-retinoic acid], the “inhibition of ODC” value with ODC was “active at inhibiting ODC”. The “therapeutic activity in humans” value in the test on humans was “therapeutically active in humans”.

Regarding `CCOC(=O)/C=C(C)/C=C/C=C(C)/C=C/c1c(C)cc(OC)c(C)c1C` [etretinate], the “inhibition of ODC” value in the test on ODC is “active at inhibiting ODC”. Besides, the “therapeutic activity in humans” value in the test on humans was “therapeutically active in humans”.
